Data reported in publication PMC4979471 (Cell Death Discovery, 2015).
Where two headings read alike, the source gives them in different places.

Experiments:
Experiment in all cases: Kinase selectivity, P33-radiolabeled assay
Assay type in all cases: biochemical
Conditions in all cases: 10 μM ATP
[1] = biological target: T1, ALK5/TGFBR1 (Homo sapiens, UniProt P36897)
T1 construct: purchased Reaction Biology Corp
T1 sequence (P36897 34-503): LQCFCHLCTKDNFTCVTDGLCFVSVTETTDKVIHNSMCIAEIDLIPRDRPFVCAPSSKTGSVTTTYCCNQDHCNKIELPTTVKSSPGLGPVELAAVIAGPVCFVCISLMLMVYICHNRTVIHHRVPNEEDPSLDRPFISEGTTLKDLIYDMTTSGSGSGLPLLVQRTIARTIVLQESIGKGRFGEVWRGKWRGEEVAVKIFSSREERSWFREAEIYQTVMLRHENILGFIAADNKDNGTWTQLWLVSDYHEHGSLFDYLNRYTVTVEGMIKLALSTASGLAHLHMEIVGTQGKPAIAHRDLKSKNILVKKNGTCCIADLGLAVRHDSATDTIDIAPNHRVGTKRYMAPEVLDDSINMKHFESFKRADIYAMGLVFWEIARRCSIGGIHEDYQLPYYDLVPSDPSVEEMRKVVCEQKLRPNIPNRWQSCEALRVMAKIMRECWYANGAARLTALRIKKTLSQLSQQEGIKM
How it was run: (§1)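 Duplicate single-concentration testing used 10 μM compound. The ATP concentration was also 10 μM.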

[2] = biological target: T2, BLK (Homo sapiens, UniProt P51451)
T2 construct: purchased Reaction Biology Corp
How it was run: as §1

[3] = biological target: T3, CK2a (Homo sapiens, UniProt P68400)
T3 construct: purchased Reaction Biology Corp
How it was run: as §1

[4] = biological target: T4, CLK1 (Homo sapiens, UniProt P49759)
T4 construct: purchased Reaction Biology Corp
How it was run: as §1

[5] = biological target: T5, FER (Homo sapiens, UniProt P16591)
T5 construct: purchased Reaction Biology Corp
How it was run: as §1

[6] = biological target: T6, PAK6 (Homo sapiens, UniProt Q9NQU5)
T6 construct: purchased Reaction Biology Corp
How it was run: as §1

[7] = biological target: T7, PIM1 (Homo sapiens, UniProt P11309)
T7 construct: purchased Reaction Biology Corp
How it was run: as §1

[8] = biological target: T8, PKCg (Homo sapiens, UniProt P05129)
T8 construct: purchased Reaction Biology Corp
How it was run: as §1

[9] = biological target: T9, PKCnu/PRKD3 (Homo sapiens, UniProt O94806)
T9 construct: purchased Reaction Biology Corp
T9 sequence (O94806 1-890): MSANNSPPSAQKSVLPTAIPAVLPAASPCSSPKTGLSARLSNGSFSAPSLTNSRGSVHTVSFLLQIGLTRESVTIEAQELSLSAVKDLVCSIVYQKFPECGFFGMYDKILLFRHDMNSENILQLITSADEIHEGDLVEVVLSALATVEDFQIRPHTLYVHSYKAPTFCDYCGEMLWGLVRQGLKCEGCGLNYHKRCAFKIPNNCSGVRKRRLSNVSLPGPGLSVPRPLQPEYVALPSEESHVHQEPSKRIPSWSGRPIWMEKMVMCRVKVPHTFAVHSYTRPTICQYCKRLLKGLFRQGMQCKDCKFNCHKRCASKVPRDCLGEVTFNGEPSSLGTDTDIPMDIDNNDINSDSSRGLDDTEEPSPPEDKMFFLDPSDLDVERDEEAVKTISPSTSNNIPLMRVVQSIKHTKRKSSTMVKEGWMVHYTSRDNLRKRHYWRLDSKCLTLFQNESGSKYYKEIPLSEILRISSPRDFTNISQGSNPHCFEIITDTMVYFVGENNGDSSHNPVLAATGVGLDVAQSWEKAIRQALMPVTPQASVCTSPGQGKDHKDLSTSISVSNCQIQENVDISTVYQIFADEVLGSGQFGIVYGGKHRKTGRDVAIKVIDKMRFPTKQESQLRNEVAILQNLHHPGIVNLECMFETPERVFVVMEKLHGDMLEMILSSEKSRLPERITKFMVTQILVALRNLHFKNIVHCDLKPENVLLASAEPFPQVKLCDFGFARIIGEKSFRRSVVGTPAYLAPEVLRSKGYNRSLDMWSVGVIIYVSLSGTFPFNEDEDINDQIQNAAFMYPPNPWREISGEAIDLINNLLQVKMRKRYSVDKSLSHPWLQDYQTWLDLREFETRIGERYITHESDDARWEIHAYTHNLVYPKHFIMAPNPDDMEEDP
How it was run: as §1

[10] = biological target: T10, PLK3 (Homo sapiens, UniProt Q9H4B4)
T10 construct: purchased Reaction Biology Corp
How it was run: as §1

[11] = biological target: T11, TAK1 (Homo sapiens, UniProt O43318)
T11 construct: purchased Reaction Biology Corp
T11 sequence (O43318 1-303 limits assumed): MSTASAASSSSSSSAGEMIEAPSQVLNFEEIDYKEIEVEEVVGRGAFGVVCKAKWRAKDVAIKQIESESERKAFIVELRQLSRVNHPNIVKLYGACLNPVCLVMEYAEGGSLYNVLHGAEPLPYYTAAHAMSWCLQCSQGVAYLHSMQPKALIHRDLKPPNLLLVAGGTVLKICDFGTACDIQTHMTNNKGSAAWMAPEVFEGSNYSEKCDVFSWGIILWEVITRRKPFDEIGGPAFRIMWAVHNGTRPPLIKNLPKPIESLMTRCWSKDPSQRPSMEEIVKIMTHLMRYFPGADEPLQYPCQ
T11 sequence (Q15750 437-504 partner limits assumed): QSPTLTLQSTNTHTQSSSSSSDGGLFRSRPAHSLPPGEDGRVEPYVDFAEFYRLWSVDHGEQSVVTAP
How it was run: as §1

[12] = biological target: T12, c-MET (Homo sapiens, UniProt P08581)
T12 construct: purchased Reaction Biology Corp
How it was run: as §1

[13] = biological target: T13, p70S6Kb/RPS6KB2 (Homo sapiens, UniProt Q9UBS0)
T13 construct: purchased Reaction Biology Corp
How it was run: as §1

[14] = read-out: % Enzyme Activity (relative to DMSO controls) AVG
[15] = read-out: % Enzyme Activity (relative to DMSO controls) Data 1
[16] = read-out: % Enzyme Activity (relative to DMSO controls) Data 2

T5 sequence (P16591 whole entry): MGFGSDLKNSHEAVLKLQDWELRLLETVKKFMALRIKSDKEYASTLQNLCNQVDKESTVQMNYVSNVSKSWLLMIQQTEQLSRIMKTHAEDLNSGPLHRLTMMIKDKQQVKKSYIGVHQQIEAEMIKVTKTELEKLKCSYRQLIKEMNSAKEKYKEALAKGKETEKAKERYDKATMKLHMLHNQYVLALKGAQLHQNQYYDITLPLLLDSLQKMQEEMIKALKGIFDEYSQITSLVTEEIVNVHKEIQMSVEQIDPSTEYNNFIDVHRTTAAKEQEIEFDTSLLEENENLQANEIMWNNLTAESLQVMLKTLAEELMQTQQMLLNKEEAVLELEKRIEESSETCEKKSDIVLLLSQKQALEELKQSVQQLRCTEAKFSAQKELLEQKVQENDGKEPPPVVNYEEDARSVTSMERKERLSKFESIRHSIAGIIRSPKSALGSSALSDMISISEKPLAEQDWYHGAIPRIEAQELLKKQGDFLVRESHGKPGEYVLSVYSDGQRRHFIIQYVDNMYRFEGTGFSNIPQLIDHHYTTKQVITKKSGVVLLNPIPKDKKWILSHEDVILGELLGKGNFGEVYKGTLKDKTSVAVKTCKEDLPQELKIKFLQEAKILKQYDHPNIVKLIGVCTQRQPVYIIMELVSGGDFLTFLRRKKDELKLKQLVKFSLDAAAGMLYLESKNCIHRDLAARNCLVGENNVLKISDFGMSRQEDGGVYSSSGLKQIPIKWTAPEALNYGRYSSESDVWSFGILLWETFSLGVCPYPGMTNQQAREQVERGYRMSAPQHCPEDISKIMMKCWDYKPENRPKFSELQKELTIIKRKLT
T12 sequence (P08581 25-1390): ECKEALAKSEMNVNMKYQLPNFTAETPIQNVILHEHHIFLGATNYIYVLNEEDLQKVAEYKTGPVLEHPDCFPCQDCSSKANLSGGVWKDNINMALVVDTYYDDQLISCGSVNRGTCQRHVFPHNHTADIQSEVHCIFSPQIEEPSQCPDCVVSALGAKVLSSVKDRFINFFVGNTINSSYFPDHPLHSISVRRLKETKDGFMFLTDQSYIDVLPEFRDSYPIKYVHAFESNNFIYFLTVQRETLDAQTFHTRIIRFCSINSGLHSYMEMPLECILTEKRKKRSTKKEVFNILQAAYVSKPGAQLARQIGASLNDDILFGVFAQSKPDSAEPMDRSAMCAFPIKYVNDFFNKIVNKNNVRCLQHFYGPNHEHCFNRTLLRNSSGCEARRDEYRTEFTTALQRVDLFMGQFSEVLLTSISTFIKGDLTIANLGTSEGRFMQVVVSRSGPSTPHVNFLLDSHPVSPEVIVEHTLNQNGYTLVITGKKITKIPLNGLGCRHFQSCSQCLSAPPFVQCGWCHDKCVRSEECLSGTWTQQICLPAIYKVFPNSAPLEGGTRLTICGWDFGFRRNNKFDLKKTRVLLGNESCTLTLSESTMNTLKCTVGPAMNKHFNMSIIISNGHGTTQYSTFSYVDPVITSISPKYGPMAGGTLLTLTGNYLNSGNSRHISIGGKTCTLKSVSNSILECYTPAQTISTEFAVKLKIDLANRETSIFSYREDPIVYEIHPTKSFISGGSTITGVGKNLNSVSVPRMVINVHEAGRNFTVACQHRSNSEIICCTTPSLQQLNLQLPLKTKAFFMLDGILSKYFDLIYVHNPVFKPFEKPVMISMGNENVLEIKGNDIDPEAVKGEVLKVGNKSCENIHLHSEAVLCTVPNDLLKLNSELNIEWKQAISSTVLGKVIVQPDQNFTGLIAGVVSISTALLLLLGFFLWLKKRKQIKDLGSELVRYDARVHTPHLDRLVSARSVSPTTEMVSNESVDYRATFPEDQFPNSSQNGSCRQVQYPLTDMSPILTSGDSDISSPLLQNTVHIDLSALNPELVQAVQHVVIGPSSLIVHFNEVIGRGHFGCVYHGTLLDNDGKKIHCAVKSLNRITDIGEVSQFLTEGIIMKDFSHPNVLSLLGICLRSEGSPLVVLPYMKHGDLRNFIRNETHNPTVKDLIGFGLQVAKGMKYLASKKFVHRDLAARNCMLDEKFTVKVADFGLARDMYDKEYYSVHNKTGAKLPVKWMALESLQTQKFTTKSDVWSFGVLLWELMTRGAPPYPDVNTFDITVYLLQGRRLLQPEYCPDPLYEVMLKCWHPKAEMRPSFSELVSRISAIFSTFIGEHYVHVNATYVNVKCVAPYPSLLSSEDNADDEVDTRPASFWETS
T4 sequence (P49759 whole entry): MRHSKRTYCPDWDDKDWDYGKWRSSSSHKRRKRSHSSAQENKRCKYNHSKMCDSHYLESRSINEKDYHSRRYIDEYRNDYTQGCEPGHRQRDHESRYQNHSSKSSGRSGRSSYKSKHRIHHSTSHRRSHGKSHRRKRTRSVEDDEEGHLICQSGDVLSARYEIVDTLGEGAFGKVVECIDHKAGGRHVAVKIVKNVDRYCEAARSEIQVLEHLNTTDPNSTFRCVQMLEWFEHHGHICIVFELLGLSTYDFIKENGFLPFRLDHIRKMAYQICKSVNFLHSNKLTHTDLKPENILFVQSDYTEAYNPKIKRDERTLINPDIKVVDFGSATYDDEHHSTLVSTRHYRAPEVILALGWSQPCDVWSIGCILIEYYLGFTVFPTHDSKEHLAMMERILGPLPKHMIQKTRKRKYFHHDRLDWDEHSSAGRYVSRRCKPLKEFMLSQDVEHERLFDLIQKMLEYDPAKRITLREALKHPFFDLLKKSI
T2 sequence (P51451 whole entry): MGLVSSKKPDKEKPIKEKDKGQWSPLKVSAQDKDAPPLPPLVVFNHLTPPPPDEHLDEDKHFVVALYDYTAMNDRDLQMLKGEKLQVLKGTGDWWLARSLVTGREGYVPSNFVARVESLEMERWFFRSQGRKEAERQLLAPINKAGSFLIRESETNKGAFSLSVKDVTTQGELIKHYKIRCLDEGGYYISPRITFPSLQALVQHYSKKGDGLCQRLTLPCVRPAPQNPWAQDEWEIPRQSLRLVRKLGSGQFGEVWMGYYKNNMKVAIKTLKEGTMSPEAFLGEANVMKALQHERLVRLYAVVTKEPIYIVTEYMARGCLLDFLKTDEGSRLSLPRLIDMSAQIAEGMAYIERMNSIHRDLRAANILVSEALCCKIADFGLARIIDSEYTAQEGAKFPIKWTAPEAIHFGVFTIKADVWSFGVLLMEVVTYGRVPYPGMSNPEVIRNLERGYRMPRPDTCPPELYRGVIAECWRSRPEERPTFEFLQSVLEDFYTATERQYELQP
T7 sequence (P11309 whole entry): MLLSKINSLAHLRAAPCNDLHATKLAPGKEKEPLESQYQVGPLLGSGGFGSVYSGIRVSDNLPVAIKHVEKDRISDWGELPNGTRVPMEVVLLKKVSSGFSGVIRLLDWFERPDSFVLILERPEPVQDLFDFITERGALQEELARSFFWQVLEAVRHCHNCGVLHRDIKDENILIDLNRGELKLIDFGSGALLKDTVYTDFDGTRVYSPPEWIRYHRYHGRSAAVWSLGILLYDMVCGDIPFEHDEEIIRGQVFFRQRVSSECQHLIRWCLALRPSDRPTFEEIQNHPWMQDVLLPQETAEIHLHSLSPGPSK
T13 sequence (Q9UBS0 whole entry): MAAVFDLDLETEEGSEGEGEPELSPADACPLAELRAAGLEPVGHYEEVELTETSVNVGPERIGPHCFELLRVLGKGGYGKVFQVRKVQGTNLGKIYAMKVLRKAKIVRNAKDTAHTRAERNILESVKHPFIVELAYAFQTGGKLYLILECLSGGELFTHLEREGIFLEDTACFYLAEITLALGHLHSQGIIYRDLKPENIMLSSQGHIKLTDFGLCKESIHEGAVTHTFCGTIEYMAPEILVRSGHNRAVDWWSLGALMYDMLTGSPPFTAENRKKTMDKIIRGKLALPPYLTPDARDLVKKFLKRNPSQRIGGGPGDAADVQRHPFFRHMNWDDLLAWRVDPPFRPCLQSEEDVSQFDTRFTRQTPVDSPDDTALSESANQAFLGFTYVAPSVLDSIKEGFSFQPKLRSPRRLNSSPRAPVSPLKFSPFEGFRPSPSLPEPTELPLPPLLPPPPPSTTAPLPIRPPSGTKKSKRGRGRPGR

Which results are given for `CC(C)(C)C(=O)N1N=CC[C@H]1c1ccccc1` [GSK′963]?
remaining activity at 10 µM [1, 14]: 94.1%; remaining activity at 10 µM [1, 15]: 97%; remaining activity at 10 µM [1, 16]: 91.2%; remaining activity at 10 µM [2, 14]: 113%; remaining activity at 10 µM [2, 15]: 112%; remaining activity at 10 µM [2, 16]: 113%; remaining activity at 10 µM [3, 14]: 99.4%; remaining activity at 10 µM [3, 15]: 105%; remaining activity at 10 µM [3, 16]: 93.8%; remaining activity at 10 µM [4, 14]: 107%; remaining activity at 10 µM [4, 15]: 108%; remaining activity at 10 µM [4, 16]: 106%; remaining activity at 10 µM [5, 14]: 107%; remaining activity at 10 µM [5, 15]: 109%; remaining activity at 10 µM [5, 16]: 105%; remaining activity at 10 µM [6, 14]: 97.1%; remaining activity at 10 µM [6, 15]: 99.6%; remaining activity at 10 µM [6, 16]: 94.7%; remaining activity at 10 µM [7, 14]: 109%; remaining activity at 10 µM [7, 15]: 113%; remaining activity at 10 µM [7, 16]: 106%; remaining activity at 10 µM [8, 14]: 88.5%; remaining activity at 10 µM [8, 15]: 86.8%; remaining activity at 10 µM [8, 16]: 90.2%; remaining activity at 10 µM [9, 14]: 101%; remaining activity at 10 µM [9, 15]: 103%; remaining activity at 10 µM [9, 16]: 100%; remaining activity at 10 µM [10, 14]: 92.5%; remaining activity at 10 µM [10, 15]: 95.5%; remaining activity at 10 µM [10, 16]: 89.5%; remaining activity at 10 µM [11, 14]: 98.8%; remaining activity at 10 µM [11, 15]: 99.7%; remaining activity at 10 µM [11, 16]: 97.9%; remaining activity at 10 µM [12, 14]: 94.5%; remaining activity at 10 µM [12, 15]: 90.7%; remaining activity at 10 µM [12, 16]: 98.3%; remaining activity at 10 µM [13, 14]: 100%; remaining activity at 10 µM [13, 15]: 102%; remaining activity at 10 µM [13, 16]: 98%
